Reference: the NIST ThermoML archive (doi:10.1021/je050483s)
Numbers after ± are expanded uncertainties.

Experiments:
[1] = xn = mol fraction of the nth substance listed; details: 101 kPa, Liquid
[2] = 101 kPa, Liquid

C1CCNC1 [pyrrolidine] + O
speed of sound [m/s], [1]
Details	293 K	303 K	313 K	323 K
x1 = 0.006	1501.6 ± 1.5	1525.2 ± 1.5	1541.5 ± 1.5	1552.2 ± 1.5
x1 = 0.01	1517.1 ± 1.5	1537.1 ± 1.5	1551.1 ± 1.5	1559.7 ± 1.5
x1 = 0.022	1557.9 ± 1.5	1569.8 ± 1.5	1576.6 ± 1.5	1578.7 ± 1.5
x1 = 0.068	1650.5 ± 1.6	1635.1 ± 1.6	1619.3 ± 1.6	1602.3 ± 1.6
x1 = 0.116	1654.8 ± 1.6	1631.8 ± 1.6	1608 ± 1.6	1583.2 ± 1.6
x1 = 0.208	1626.3 ± 1.6	1596.4 ± 1.6	1565.5 ± 1.6	1533.5 ± 1.6
x1 = 0.304	1589.8 ± 1.6	1555.3 ± 1.6	1520 ± 1.6	1483.9 ± 1.6
x1 = 0.396	1556.7 ± 1.6	1519.5 ± 1.6	1481.6 ± 1.6	1443 ± 1.6
x1 = 0.483	1528.8 ± 1.6	1489.9 ± 1.6	1450.5 ± 1.6	1410.5 ± 1.6
x1 = 0.567	1500.3 ± 1.7	1458.9 ± 1.6	1422.2 ± 1.6	1377.7 ± 1.6
x1 = 0.686	1467.5 ± 1.7	1426.8 ± 1.6	1385.6 ± 1.6	1344 ± 1.6
x1 = 0.868	1416.6 ± 1.7	1375.5 ± 1.7	1333.8 ± 1.7	1291.7 ± 1.6
x1 = 1	1389.4 ± 1.8	1348 ± 1.8	1305.8 ± 1.7	1263 ± 1.7

O [water] + C1CCNCC1
Details	speed of sound [m/s]
[1], 313 K, x2 = 0	1529 ± 1.8

O [water] + C1CCNC1
Details	speed of sound [m/s]
[1], 313 K, x2 = 0	1529 ± 1.5

C1CCNC1 [pyrrolidine]
[2]
Details	speed of sound [m/s]
293 K	1389.4 ± 1.8
303 K	1348 ± 1.8
313 K	1305.8 ± 1.7
323 K	1263 ± 1.7

C1CCNCC1 [piperidine] + O
speed of sound [m/s], [1]
Details	293 K	303 K	313 K	323 K
x1 = 0.006	1506.5 ± 1.8	1528.7 ± 1.8	1544.8 ± 1.8	1555.1 ± 1.8
x1 = 0.011	1531.1 ± 1.8	1548.7 ± 1.8	1560.4 ± 1.8	1566.8 ± 1.8
x1 = 0.028	1590.1 ± 1.9	1588.3 ± 1.9	1584.5 ± 1.9	1578.3 ± 1.9
x1 = 0.057	1596.3 ± 1.9	1587.1 ± 1.9	1576 ± 1.9	1562.7 ± 1.8
x1 = 0.099	1593.6 ± 1.9	1576.5 ± 1.9	1557.5 ± 1.8	1536.6 ± 1.8
x1 = 0.18	1575.4 ± 1.9	1547.9 ± 1.9	1519.2 ± 1.8	1489.3 ± 1.8
x1 = 0.267	1550.2 ± 1.9	1517.2 ± 1.9	1483.5 ± 1.8	1449 ± 1.8
x1 = 0.354	1525.1 ± 1.9	1489.1 ± 1.9	1452.5 ± 1.8	1415.4 ± 1.8
x1 = 0.439	1499.8 ± 1.9	1461.1 ± 1.8	1424 ± 1.8	1384.9 ± 1.8
x1 = 0.523	1477 ± 1.9	1438 ± 1.8	1398.6 ± 1.8	1358.9 ± 1.8
x1 = 0.646	1445.3 ± 1.9	1405.2 ± 1.8	1364.8 ± 1.8	1324.2 ± 1.8
x1 = 0.846	1406.2 ± 1.9	1365.1 ± 1.8	1323.6 ± 1.8	1282 ± 1.8
x1 = 1	1384.4 ± 1.9	1342.3 ± 1.8	1299.9 ± 1.8	1257.4 ± 1.8

C1CCNCC1 [piperidine]
[2]
Details	speed of sound [m/s]
293 K	1384.4 ± 1.9
303 K	1342.3 ± 1.8
313 K	1299.9 ± 1.8
323 K	1257.4 ± 1.8
